The source of these data is patent US20220220075A1, “SOLID FORM OF AROMATIC COMPOUND AND PREPARATION METHOD THEREFOR” (Sichuan Kelun-Biotech Biopharmaceutical Co., Ltd., priority 2019, published 2022).

One data set concerns HepG2 cells. The settings on record: statement in words; tests disclosed in WO2019105234A1; cited from earlier work.
In the next data set the test system is HEK293 cells. The following applies: statement in words; tests disclosed in WO2019105234A1; cited from earlier work.
The nature of data set [1]: Study on pharmacokinetics (PK) in rats. Type of data set: in vivo, male SD rats. The following applies: PO, 5 mg/kg. Here is the method: A sample of crystalline form A was administered to male SD rats by intragastric route (PO) to investigate its pharmacokinetic characteristics. The dose was 5 mg/kg, and 0.5% MC (methylcellulose sodium) was used as a solvent to prepare a suspension of crystalline form A. In the administration group, whole blood samples were collected before PO administration (0 h) and at time points of 0.083, 0.17, 0.25, 0.5, 1, 2, 4, 6, 8 and 24 hours after administration. The whole blood samples were anticoagulated with EDTA.K2, and plasma samples were obtained after centrifugation and stored at −80° C. for later testing. In this experiment, there were three animals in each group for parallel testing.
The plasma samples were treated by precipitating protein and then analyzed by LC-MS/MS. Using WinNonlin 6.3 software, the pharmacokinetic parameters was calculated by means of the non-compartmental model, and the results were shown in Table 1.

In the next data set the target is T1, PPAR δ (Homo sapiens, UniProt Q03181).
T1 sequence (Q03181 1-441): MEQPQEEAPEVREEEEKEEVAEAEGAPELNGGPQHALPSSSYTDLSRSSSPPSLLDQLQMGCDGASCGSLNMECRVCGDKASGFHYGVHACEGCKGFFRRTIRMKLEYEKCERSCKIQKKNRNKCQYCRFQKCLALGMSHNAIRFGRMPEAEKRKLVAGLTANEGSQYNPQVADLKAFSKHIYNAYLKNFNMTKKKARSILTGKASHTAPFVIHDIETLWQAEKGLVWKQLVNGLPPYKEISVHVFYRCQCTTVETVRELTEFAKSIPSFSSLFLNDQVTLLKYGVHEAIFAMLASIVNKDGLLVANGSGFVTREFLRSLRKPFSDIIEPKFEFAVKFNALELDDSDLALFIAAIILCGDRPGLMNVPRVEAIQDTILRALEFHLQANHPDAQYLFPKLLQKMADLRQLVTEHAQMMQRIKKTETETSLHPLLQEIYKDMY
The following applies: statement in words; tests disclosed in WO2019105234A1; cited from earlier work.

The target in the next data set is hERG (Homo sapiens, UniProt Q12809). The following applies: statement in words; tests disclosed in WO2019105234A1; cited from earlier work.
Sequence of hERG (Q12809 whole entry): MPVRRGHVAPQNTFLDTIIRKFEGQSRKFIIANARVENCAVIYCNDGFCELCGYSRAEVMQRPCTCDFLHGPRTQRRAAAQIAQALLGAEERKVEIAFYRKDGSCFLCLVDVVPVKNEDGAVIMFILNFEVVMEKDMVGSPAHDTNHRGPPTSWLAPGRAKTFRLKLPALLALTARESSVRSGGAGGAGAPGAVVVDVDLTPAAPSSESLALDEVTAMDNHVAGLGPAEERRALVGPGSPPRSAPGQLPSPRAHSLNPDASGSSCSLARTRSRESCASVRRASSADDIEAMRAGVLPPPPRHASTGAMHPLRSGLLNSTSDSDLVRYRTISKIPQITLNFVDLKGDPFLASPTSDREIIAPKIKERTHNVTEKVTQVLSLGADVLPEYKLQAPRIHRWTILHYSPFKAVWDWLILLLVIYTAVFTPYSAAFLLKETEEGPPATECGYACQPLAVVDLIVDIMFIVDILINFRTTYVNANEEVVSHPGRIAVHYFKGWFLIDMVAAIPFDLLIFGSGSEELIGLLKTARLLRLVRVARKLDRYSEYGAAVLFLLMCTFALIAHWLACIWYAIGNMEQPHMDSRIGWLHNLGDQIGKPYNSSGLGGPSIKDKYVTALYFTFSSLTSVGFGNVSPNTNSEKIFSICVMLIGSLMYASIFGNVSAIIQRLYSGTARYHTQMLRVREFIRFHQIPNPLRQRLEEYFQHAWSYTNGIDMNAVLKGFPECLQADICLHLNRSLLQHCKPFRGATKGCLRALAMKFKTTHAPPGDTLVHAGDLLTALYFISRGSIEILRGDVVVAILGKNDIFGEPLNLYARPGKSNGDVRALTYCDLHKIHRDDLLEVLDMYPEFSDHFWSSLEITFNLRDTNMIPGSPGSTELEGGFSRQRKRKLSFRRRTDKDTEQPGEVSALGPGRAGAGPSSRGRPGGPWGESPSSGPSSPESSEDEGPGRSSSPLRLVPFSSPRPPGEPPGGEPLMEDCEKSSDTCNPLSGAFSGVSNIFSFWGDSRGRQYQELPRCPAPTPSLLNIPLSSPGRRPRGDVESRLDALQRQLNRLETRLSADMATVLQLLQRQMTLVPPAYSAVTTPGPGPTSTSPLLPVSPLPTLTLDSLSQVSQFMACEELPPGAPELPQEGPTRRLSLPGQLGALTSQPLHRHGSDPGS
The nature of data set [2]: High humidity stability test (purity by HPLC, XRPD). The format is physicochemical. The settings on record: 25±2° C., 92.5% RH; for Purity: open dish. On the procedure: (§1) In this experimental example, the chemical stability of crystalline form A was studied by high temperature and high humidity test.
(§2) Method for testing purity: high performance liquid chromatography (Chinese Pharmacopoeia, 2015 Edition, Four General Rules 0512) was used to test purify.
(§3) Chromatographic column: phenyl bonded silica gel was used as filler;
(§4) Mobile phase A: 5 mM ammonium acetate (pH 4.0);
(§5) Mobile phase B: Acetonitrile (containing 0.05% acetic acid);
(§6) Detection wavelength: 230 nm.
(§7) Elution condition: gradient elution.
The crystalline form A of the compound of Formula I was evenly spread into an open culture dish with a thickness of ≤5 mm, and placed in a constant temperature incubator at room temperature (25±2° C.) and relative humidity of 92.5% RH. […]

Data set [3] in a line: High temperature stability test (purity by HPLC, XRPD). Type of data set: physicochemical. The following applies: 60° C.; for Purity: sealed glass bottle. On the procedure:
as §1, §2, §3, §4, §5, §6, §7
The crystalline form A was placed in a sealed and clean glass bottle, and then the glass bottle was placed in a 60° C. constant temperature drying oven, and samples were taken on the […] and the 30th day, respectively, to detect impurity contents, and the purity results were shown in Table 2.

The mark [4] stands for this setting: rat, male SD rats, suspension in 0.5% MC, plasma.

Regarding `COc1nc2ccccc2cc1C(=O)/C=C/c1cc(C)c(OC(C)(C)C(=O)O)c(C)c1` [crystalline form A, (E)-2-(4-(3-(2-methoxyquinolin-3-yl)-3-oxo-1-propen-1-yl)-2,6-dimethylphenoxy)-2-methyl-propionic acid], the “toxicity to HepG2 cells” value in the data set with HepG2 cells is “low toxicity”. Further, in the data set on HEK293 cells, the “toxicity to HEK293 cells” value is given as “low toxicity”. Moreover, the “exposure in rat plasma” value in data set [1] was “better exposure”. The AUC(0-t) in data set [1] (setting [4]) is 777 ng·h/mL. Besides, in data set [1] (setting [4]), the peak level (Cmax) was 522 ng/mL. For the same compound, the “agonistic effect on PPAR δ” value on PPAR δ is given as “obvious agonistic effect”. Also, at hERG, the “inhibitory effect on hERG” value was “no obvious inhibitory effect”. For the same compound, the “change of crystalline form by XRPD” value in data set [2] (after 30 days of storage) and in data set [3] (after 30 days of storage) was “did not change” throughout. For the same compound, the Purity in data set [2] (0th day) is recorded as 99.51%; in data set [2] (10th day) it was 99.53%; in data set [2] (30th day), 99.54%; in data set [3] (0th day), 99.51%; in data set [3] (10th day), 99.53%; in data set [3] (30th day), 99.54%. The “change of purity under high humidity conditions” value in data set [2] (up to 30 days) is on record as “no significant change”. Further, in data set [3] (up to 30 days), the “change of purity under high temperature conditions” value was “no significant change”.

As a reminder, the AUC(0-t) is the area under the concentration-time curve up to a stated or last time point. A high value points to more exposure. One may read the Cmax as the peak of the concentration-time curve.
